{
  "source": "patent US20240299328A1",
  "about": "“COMPOSITIONS COMPRISING 15-HEPE AND METHODS OF TREATING AND/OR PREVENTING HEMATOLOGIC DISORDERS AND RELATED DISEASES” (Afimmune Limited, priority 2023, published 2024)",
  "type_in_all_cases": "in vivo",
  "key": {"[1]": {"tested_on": "α-SMA, TIMP-1, TGF-β and Collagen Type 1 mRNA", "assay": "BDL study: quantitative RT-PCR of liver", "conditions": "BDL mice liver, normalized to 36B4, Day 14, mean ± SD", "protocol": "Quantitative RT-PCR: Total ribonucleic acid (RNA) was extracted from liver samples using RNAiso. One μg of RNA was reverse-transcribed using a reaction mixture containing 4.4 mM magnesium chloride (MgCl2), 40 U RNase inhibitor, 0.5 mM dNTP, 6.28 μM random hexamer, 5× first strand buffer, 10 mM dithiothreitol and 200 U MMLV-RT in a final volume of 20 μL. The reaction was carried out for 1 hour at 37° C., followed by 5 minutes at 99° C. Real-time PCR was performed using real-time PCR DICE and TB Green™ Premix Ex Taq™ II. To calculate the relative mRNA expression level, the expression of each gene (α-SMA, TIMP-1, TGF-β and Collagen Type 1) was normalized to that of reference gene 36B4 (gene symbol: Rplp0). Information regarding the PCR-primer sets and the plate layout are described in Tables 8 and 9."}, "[2]": {"tested_on": "BDL-operated mice", "protocol": "BDL Surgery: On Day 0 of the study, BDL surgery was performed under pentobarbital anesthesia. The mouse's hair was first shaved, the abdominal cavity cut open, and the common bile duct was ligated twice with 7-0 surgical silk. The mouse's peritoneum and the skin were closed with sutures, and the mice were transferred to a clean cage (e.g., resting cage) until recovered from anesthesia. Sham operated mice had their common bile duct exposed but not ligated.\nAnimals: Pathogen-free 6 weeks of age male C57BL/6J mice were obtained. The animals were maintained in a specific-pathogen free (SPF) facility under controlled conditions of temperature (e.g., 23±2° C.), humidity (e.g., 45±10%), lighting (e.g., 12-hour artificial light and dark cycles; light from 8:00 to 20:00) and air exchange. A high pressure was maintained in the experimental room to prevent contamination of the facility. The animals were housed in TPX cages with a maximum of 4 mice per cage. Sterilized Paper-Clean was used for bedding and replaced once a week. Sterilized solid normal diet was provided ad libitum, being placed in a metal lid on the top of the cage. Pure water was also provided ad libitum from a water bottle equipped with a rubber stopper and a sipper tube. Water bottles were replaced once a week, cleaned, and sterilized in an autoclave and reused. Mice were identified by ear punch and each cage was labeled with a specific identification code.\n(§1) Animal Monitoring and Sacrifice: The viability, clinical signs and behavior for the mice were monitored daily. Individual body weight was measured daily before treatment during the treatment period. […] The animals were sacrificed at Day 14 after BDL surgery by exsanguination through direct cardiac puncture under isoflurane anesthesia."}, "[3]": {"tested_on": "UUO mice", "protocol": "UUO Surgery: On day 0 of the study, UUO surgery was performed on mice under pentobarbital sodium anesthesia. The mouse's hair was first shaved and then abdomen cut open to exteriorize the mouse's left ureter. The ureter was ligated 4-0 nylon sutures at two points. The mouse's peritoneum and skin were then closed with sutures, and the mouse transferred to a clean cage until recovered from the anesthesia. Sham operated mice had their left ureter exposed but not ligated. […]\nAnimals: Seven-week-old female C57BL/6 mice (i.e., animals) were obtained and were housed and fed with a normal diet under controlled conditions. The animals were maintained in a specific-pathogen free (SPF) facility under controlled conditions of temperature (e.g., 23±2° C.), humidity (e.g., 45±10%), lighting (e.g., 12-hour artificial light and dark cycles; light from 8:00 to 20:00) and air exchange. A high pressure was maintained in the experimental room to prevent contamination of the facility. The animals were housed in TPX cages with a maximum of 4 mice per cage. Sterilized Paper-Clean was used for bedding and replaced once a week. Sterilized solid normal diet was provided ad libitum, being placed in a metal lid on the top of the cage. Pure water was also provided ad libitum from a water bottle equipped with a rubber stopper and a sipper tube. Water bottles were replaced once a week, cleaned, and sterilized in an autoclave and reused. Mice were identified by ear punch and each cage was labeled with a specific identification code.\nas §1, with “sacrificed” for “sacrificed at Day 14 after BDL surgery”, “anesthesia at Day 14.” for “anesthesia.”"}, "[4]": {"conditions": "50 mg/kg PO QD Day 0-13, Day 14, mean ± SD"}, "[5]": {"conditions": "250 mg/kg PO QD Day 0-13, Day 14, mean ± SD"}, "[6]": {"conditions": "500 mg/kg PO QD Day 0-13, Day 14, mean ± SD"}, "[7]": {"conditions": "DS102 50, 250, 500 mg/kg groups vs Vehicle group"}},
  "note": "Like-named read-outs stand apart in the source and are kept apart here.",
  "data": [
    {"molecule": "CC/C=C\\C[C@H](O)/C=C/C=C\\C/C=C\\C/C=C\\CCCC(=O)OCC", "note": "[DS102, 15(S)-hydroxy-(5Z,8Z,11Z,13E,17Z)-eicosapentaenoic acid ethyl ester]", "values": [
      {"measurement": "Alpha-SMA mRNA expression level", "setting": "[1]; 50 mg/kg PO QD Day 0-13", "value": "3.21 ± 1.67"},
      {"measurement": "Collagen Type 1 mRNA expression level", "setting": "[1]; 50 mg/kg PO QD Day 0-13", "value": "4.94 ± 2.76"},
      {"measurement": "TGF-β mRNA expression level", "setting": "[1]; 50 mg/kg PO QD Day 0-13", "value": "1.48 ± 0.48"},
      {"measurement": "TIMP-1 mRNA expression level", "setting": "[1]; 50 mg/kg PO QD Day 0-13", "value": "43.82 ± 26.19"},
      {"measurement": "Alpha-SMA mRNA expression level", "setting": "[1]; 250 mg/kg PO QD Day 0-13", "value": "2.66 ± 1.33"},
      {"measurement": "Collagen Type 1 mRNA expression level", "setting": "[1]; 250 mg/kg PO QD Day 0-13", "value": "4.21 ± 1.90"},
      {"measurement": "TGF-β mRNA expression level", "setting": "[1]; 250 mg/kg PO QD Day 0-13", "value": "1.50 ± 0.44"},
      {"measurement": "TIMP-1 mRNA expression level", "setting": "[1]; 250 mg/kg PO QD Day 0-13", "value": "30.65 ± 16.80"},
      {"measurement": "Body Weight", "setting": "[2]; [4]", "value": "17.4 ± 2.9", "unit": "g"},
      {"measurement": "Liver Weight", "setting": "[2]; [4]", "value": "1392 ± 328", "unit": "mg"},
      {"measurement": "Body Weight", "setting": "[2]; [5]", "value": "17.0 ± 2.4", "unit": "g"},
      {"measurement": "Liver Weight", "setting": "[2]; [5]", "value": "1513 ± 182", "unit": "mg"},
      {"measurement": "Body Weight", "setting": "[2]; [6]", "value": "16.4 ± 1.6", "unit": "g"},
      {"measurement": "mean body weight at any day during the study period", "setting": "[2]; [7]", "value": "no significant changes"},
      {"measurement": "mean body weight on the day of sacrifice", "setting": "[2]; [7]", "value": "no significant differences"},
      {"measurement": "mice found dead before reaching Day 14", "setting": "[2]; in the DS102 low, middle and high groups (50, 250, 500 mg/kg), Vehicle three out of 15", "value": "seven out of 15"},
      {"measurement": "Body Weight", "setting": "[3]; [4]", "value": "18.8 ± 0.6", "unit": "g"},
      {"measurement": "Left Kidney Weight", "setting": "[3]; [4]", "value": "469 ± 60", "unit": "mg"},
      {"measurement": "Right Kidney Weight", "setting": "[3]; [4]", "value": "133 ± 10", "unit": "mg"},
      {"measurement": "Body Weight", "setting": "[3]; [6]", "value": "18.7 ± 0.5", "unit": "g"},
      {"measurement": "Left Kidney Weight", "setting": "[3]; [6]", "value": "487 ± 108", "unit": "mg"},
      {"measurement": "Right Kidney Weight", "setting": "[3]; [6]", "value": "136 ± 6", "unit": "mg"}
    ]}
  ]
}
